Test results from patent publication US12168805B2, “Methods and reagents for detecting piperaquine-resistant plasmodium falciparum malaria” (priority 2016, dated 2024).

How the values were obtained:
[1] = system: culture-adapted P. falciparum parasite lines; assay: in-vitro Piperaquine Survival Assay (PSA) on culture-adapted parasites; assay type: cell-based, Plasmodium falciparum; settings: for in-vitro PSA survival rate (%): 200 nM PPQ for 48 hours
Method: (§1) Cryopreserved parasites were culture-adapted as described.^12 Susceptibility to PPQ was investigated using in-vitro PSA for culture-adapted parasites and ex-vivo PSA for fresh isolates. Survival rates were assessed microscopically and parasites with a survival rate ≥10% were considered PPQ-resistant.^7 msp1, msp2 and glurp polymorphisms were determined to distinguish recrudescent from new infections.^13 Sequencing of the K13-propeller domain was used to screen for ART-resistance.^1 Whole-genome sequencing was performed using Illumina paired-reads sequencing.^1 Data were integrated into the Whole-genome Data Manager (WDM) database^14 and exomes of PPQ-resistant and -sensitive lines were compared after excluding low-coverage positions (i.e., lower than 25% of the genome-wide mean coverage). Genes from highly variable multigene families (var, rifin, phist and stevor) were excluded.^1 CNVs and SNPs were investigated using PlasmoCNVScan and Phen2gen software (see below). 1+PfPM2 and Pfmdr1 copy number was determined by qPCR (see below). Steady-state PfPM2 mRNA levels were measured by RT-qPCR (see below) and PfPM2 protein expression by immunoblotting (see below).
In-vitro susceptibility to PPQ was investigated using the in-vitro or the ex-vivo PSA, which is based on exposing very early ring-stage parasites to 200 nM PPQ for 48 hours, washing away the drug, and assessing parasite growth after a further 24 hours of culture. Survival rates at the 72 hour time point were assessed microscopically by counting the proportion of viable parasites in exposed and non-exposed cultures that developed into second-generation rings or trophozoites with normal morphology. Parasites with a survival rate ≥10% were considered PPQ-resistant.^5

[2] = system: freshly collected P. falciparum patient isolates; assay: ex-vivo Piperaquine Survival Assay (PSA) on fresh isolates; assay type: cell-based, Plasmodium falciparum
Method: Blood samples were collected into acid-citrate-dextrose tubes (Becton-Dickinson, USA) before treatment and sent to Institut Pasteur in Cambodia within 24 hours. A sub-set of freshly collected samples was used to perform the ex-vivo PSA.^7 All samples were cryopreserved in glycerolyte. Red cell pellets were stored at −20° C. for molecular studies. Blood spots were prepared on day 0 and when applicable on the day of recrudescence.
as §1, with “Genes from highly variable multigene families (var, rifin, phist and stevor) were excluded.^1 CNVs and SNPs were investigated using PlasmoCNVScan and Phen2gen software (see below).” left out, “Steady-state PfPM2 mRNA levels were measured by RT-qPCR (see below) and PfPM2 protein expression by immunoblotting (see below).” left out

SMILES: Clc1ccc2c(N3CCN(CCCN4CCN(c5ccnc6cc(Cl)ccc56)CC4)CC3)ccnc2c1 [PPQ, piperaquine]
- in-vitro susceptibility to PPQ ([1]; 3D7 reference line): Sensitive (sensitive if survival rates were <10%)
- in-vitro PSA survival rate (%) ([1]; 3D7 reference line, survival at 72 hour): 0.1%
- In-vitro PSA survival rate, PSA mean value ([1]; one sequence with DNA expansion type 3): 39.3%
- in-vitro susceptibility to PPQ ([1]; parasite line 6218): Resistant (resistant if survival rates were ≥10%)
- in-vitro PSA survival rate (%) ([1]; parasite line 6218 (2012, Battambang)): 40.8%
- in-vitro susceptibility to PPQ ([1]; parasite line 6219): Resistant (resistant if survival rates were ≥10%)
- in-vitro PSA survival rate (%) ([1]; parasite line 6219 (2012, Battambang)): 58.6%
- in-vitro susceptibility to PPQ ([1]; parasite line 6224): Resistant (resistant if survival rates were ≥10%)
- in-vitro PSA survival rate (%) ([1]; parasite line 6224 (2012, Pursat)): 61.4%
- in-vitro susceptibility to PPQ ([1]; parasite line 6229): Resistant (resistant if survival rates were ≥10%)
- in-vitro PSA survival rate (%) ([1]; parasite line 6229 (2012, Battambang)): 46.6%
- in-vitro susceptibility to PPQ ([1]; parasite line 6237): Sensitive (sensitive if survival rates were <10%)
- in-vitro PSA survival rate (%) ([1]; parasite line 6237 (2012, Kampong Thom)): 0.8%
- in-vitro susceptibility to PPQ ([1]; parasite line 6246): Resistant (resistant if survival rates were ≥10%)
- in-vitro PSA survival rate (%) ([1]; parasite line 6246 (2012, Kampong Speu)): 36.9%
- in-vitro susceptibility to PPQ ([1]; parasite line 6261): Resistant (resistant if survival rates were ≥10%)
- in-vitro PSA survival rate (%) ([1]; parasite line 6261 (2012, Pursat)): 70.5%
- in-vitro susceptibility to PPQ ([1]; parasite line 6267): Sensitive (sensitive if survival rates were <10%)
- in-vitro PSA survival rate (%) ([1]; parasite line 6267 (2012, Kampong Speu)): 0.5%
- in-vitro susceptibility to PPQ ([1]; parasite line 6272): Resistant (resistant if survival rates were ≥10%)
- in-vitro PSA survival rate (%) ([1]; parasite line 6272 (2012, Battambang)): 40.0%
- in-vitro susceptibility to PPQ ([1]; parasite line 6273): Sensitive (sensitive if survival rates were <10%)
- in-vitro PSA survival rate (%) ([1]; parasite line 6273 (2012, Kampong Speu)): 0.2%
- in-vitro susceptibility to PPQ ([1]; parasite line 6280): Resistant (resistant if survival rates were ≥10%)
- in-vitro PSA survival rate (%) ([1]; parasite line 6280 (2012, Battambang)): 28.9%
- in-vitro susceptibility to PPQ ([1]; parasite line 6293): Resistant (resistant if survival rates were ≥10%)
- in-vitro PSA survival rate (%) ([1]; parasite line 6293 (2012, Battambang)): 39.3%
- in-vitro susceptibility to PPQ ([1]; parasite line 6302): Resistant (resistant if survival rates were ≥10%)
- in-vitro PSA survival rate (%) ([1]; parasite line 6302 (2012, Battambang)): 42.5%
- in-vitro susceptibility to PPQ ([1]; parasite line 6320): Resistant (resistant if survival rates were ≥10%)
- in-vitro PSA survival rate (%) ([1]; parasite line 6320 (2012, Battambang)): 62.1%
- in-vitro susceptibility to PPQ ([1]; parasite line 6337): Sensitive (sensitive if survival rates were <10%)
- in-vitro PSA survival rate (%) ([1]; parasite line 6337 (2012, Kampong Speu)): 0.4%
- in-vitro susceptibility to PPQ ([1]; parasite line 6341): Resistant (resistant if survival rates were ≥10%)
- in-vitro PSA survival rate (%) ([1]; parasite line 6341 (2012, Pursat)): 25.8%
- in-vitro susceptibility to PPQ ([1]; parasite line 6349): Sensitive (sensitive if survival rates were <10%)
- in-vitro PSA survival rate (%) ([1]; parasite line 6349 (2012, Kampong Thom)): 0.6%
- in-vitro susceptibility to PPQ ([1]; parasite line 6365): Resistant (resistant if survival rates were ≥10%)
- in-vitro PSA survival rate (%) ([1]; parasite line 6365 (2012, Battambang)): 51.8%
- in-vitro susceptibility to PPQ ([1]; parasite line 6369): Sensitive (sensitive if survival rates were <10%)
- in-vitro PSA survival rate (%) ([1]; parasite line 6369 (2012, Pursat)): 6.4%
- in-vitro susceptibility to PPQ ([1]; parasite line 6391): Resistant (resistant if survival rates were ≥10%)
- in-vitro PSA survival rate (%) ([1]; parasite line 6391 (2012, Battambang)): 39.4%
- in-vitro susceptibility to PPQ ([1]; parasite line 6394): Resistant (resistant if survival rates were ≥10%)
- in-vitro PSA survival rate (%) ([1]; parasite line 6394 (2012, Battambang)): 56.7%
- in-vitro susceptibility to PPQ ([1]; parasite line 6395): Resistant (resistant if survival rates were ≥10%)
- in-vitro PSA survival rate (%) ([1]; parasite line 6395 (2012, Battambang)): 19.2%
- in-vitro susceptibility to PPQ ([1]; parasite line 6403): Sensitive (sensitive if survival rates were <10%)
- in-vitro PSA survival rate (%) ([1]; parasite line 6403 (2012, Pursat)): 0.5%
- in-vitro susceptibility to PPQ ([1]; parasite line 6408): Resistant (resistant if survival rates were ≥10%)
- in-vitro PSA survival rate (%) ([1]; parasite line 6408 (2012, Battambang)): 58.7%
- in-vitro susceptibility to PPQ ([1]; parasite line 6410): Sensitive (sensitive if survival rates were <10%)
- in-vitro PSA survival rate (%) ([1]; parasite line 6410 (2012, Battambang)): 6.0%
- in-vitro susceptibility to PPQ ([1]; parasite line 6411): Resistant (resistant if survival rates were ≥10%)
- in-vitro PSA survival rate (%) ([1]; parasite line 6411 (2012, Battambang)): 71.6%
- in-vitro susceptibility to PPQ ([1]; parasite line 6427): Resistant (resistant if survival rates were ≥10%)
- in-vitro PSA survival rate (%) ([1]; parasite line 6427 (2012, Battambang)): 77.4%
- in-vitro susceptibility to PPQ ([1]; parasite line 6429): Resistant (resistant if survival rates were ≥10%)
- in-vitro PSA survival rate (%) ([1]; parasite line 6429 (2012, Pursat)): 51.8%
- in-vitro susceptibility to PPQ ([1]; parasite line 6430): Resistant (resistant if survival rates were ≥10%)
- in-vitro PSA survival rate (%) ([1]; parasite line 6430 (2012, Battambang)): 51.3%
- in-vitro susceptibility to PPQ ([1]; parasite line 6431): Resistant (resistant if survival rates were ≥10%)
- in-vitro PSA survival rate (%) ([1]; parasite line 6431 (2012, Battambang)): 61.5%
- in-vitro susceptibility to PPQ ([1]; parasite line 6443): Resistant (resistant if survival rates were ≥10%)
- in-vitro PSA survival rate (%) ([1]; parasite line 6443 (2012, Battambang)): 49.6%
- In-vitro PSA survival rate, PSA mean value ([1]; parasites harboring DNA expansion type 1 (N=13)): 44.8%
- In-vitro PSA survival rate, PSA mean value ([1]; parasites harboring DNA expansion type 2 (N=6)): 64.9%
- In-vitro PSA survival rate, PSA mean value ([1]; parasites harboring DNA expansion type 4 (N=2)): 16.2%
- median ex-vivo PSA survival rate ([2]; isolates with unamplified (single copy) PfPM2): 0.004%
- median ex-vivo PSA survival rate ([2]; isolates with ≥2 PfPM2 copies): 51.7%
